Experimental data taken from article PMC9911596 (Nature Communications, 2023).
Numbering of substitutions follows the chain as printed.

Assays:
[1] = biological target: T1, Vtc1/Vtc3/Vtc4 complex (VTC complex) (Saccharomyces cerevisiae, UniProt P47075+Q02725, P47075:Y22F/P47075:K26A/P47075:K133A); test: polyP synthesis, TBE-PAGE; type: biochemical; conditions: activator; 15 mM ATP, 10 mM MgCl2, 1 mM MnCl2, 0.5 mM pyrophosphate, 27 °C, 4 h; SPX PBC mutant
T1 construct: full-length subunits co-expressed in Expi293F; Vtc1 C-terminal HA, Vtc3 N-terminal 3xFlag, Vtc4 C-terminal 2xStrep; detergent-purified; 3:1:1 pentamer; with Vacuolar transporter chaperone complex subunit 1
T1 sequence (P47075 1-721 Y22F/K26A/K133A): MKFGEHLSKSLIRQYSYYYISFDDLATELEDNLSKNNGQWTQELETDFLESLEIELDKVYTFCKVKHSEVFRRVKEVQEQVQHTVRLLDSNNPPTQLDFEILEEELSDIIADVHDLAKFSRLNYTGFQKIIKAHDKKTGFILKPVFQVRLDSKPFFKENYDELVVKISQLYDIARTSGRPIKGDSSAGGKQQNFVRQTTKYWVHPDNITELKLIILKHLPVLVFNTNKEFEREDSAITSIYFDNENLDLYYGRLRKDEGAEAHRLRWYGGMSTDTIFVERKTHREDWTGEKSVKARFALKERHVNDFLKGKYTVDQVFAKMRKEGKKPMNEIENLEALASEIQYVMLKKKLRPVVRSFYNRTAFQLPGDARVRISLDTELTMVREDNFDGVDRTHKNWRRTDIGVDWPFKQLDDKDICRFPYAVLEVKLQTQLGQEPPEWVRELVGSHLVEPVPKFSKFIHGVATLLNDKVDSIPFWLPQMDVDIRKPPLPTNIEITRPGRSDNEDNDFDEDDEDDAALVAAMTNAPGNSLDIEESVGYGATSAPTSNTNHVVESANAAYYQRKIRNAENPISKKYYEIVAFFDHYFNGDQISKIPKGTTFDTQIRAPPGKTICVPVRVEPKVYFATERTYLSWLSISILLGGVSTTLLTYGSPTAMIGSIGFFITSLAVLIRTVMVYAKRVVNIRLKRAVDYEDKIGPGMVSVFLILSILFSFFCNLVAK
T1 sequence (Q02725 1-835): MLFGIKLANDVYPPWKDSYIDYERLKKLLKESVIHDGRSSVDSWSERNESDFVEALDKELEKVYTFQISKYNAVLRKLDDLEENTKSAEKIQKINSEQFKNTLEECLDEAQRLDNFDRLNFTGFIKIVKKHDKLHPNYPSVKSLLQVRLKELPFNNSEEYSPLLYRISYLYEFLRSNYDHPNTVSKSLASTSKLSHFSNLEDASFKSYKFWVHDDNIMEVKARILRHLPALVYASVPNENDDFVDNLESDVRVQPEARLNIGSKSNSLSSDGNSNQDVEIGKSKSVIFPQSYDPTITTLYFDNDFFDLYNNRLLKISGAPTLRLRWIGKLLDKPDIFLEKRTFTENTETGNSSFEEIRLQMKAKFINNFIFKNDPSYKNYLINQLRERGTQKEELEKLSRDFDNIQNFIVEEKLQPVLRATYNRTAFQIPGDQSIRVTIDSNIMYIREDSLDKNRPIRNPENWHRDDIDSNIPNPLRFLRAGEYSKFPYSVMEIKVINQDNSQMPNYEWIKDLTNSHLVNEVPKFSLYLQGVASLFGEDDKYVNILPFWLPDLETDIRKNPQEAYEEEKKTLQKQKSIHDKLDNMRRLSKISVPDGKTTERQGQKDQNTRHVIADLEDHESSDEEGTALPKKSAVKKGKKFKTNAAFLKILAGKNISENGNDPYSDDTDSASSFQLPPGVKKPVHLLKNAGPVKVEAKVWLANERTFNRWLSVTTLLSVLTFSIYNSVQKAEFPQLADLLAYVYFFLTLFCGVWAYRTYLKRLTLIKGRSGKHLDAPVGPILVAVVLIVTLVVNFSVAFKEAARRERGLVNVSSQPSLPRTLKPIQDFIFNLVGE
T1 sequence (P40046 2-129 partner): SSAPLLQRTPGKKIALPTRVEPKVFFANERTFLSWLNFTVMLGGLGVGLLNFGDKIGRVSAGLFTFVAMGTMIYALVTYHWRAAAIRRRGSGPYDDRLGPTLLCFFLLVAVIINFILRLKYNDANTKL

[2] = biological target: T2, Vtc1/Vtc3/Vtc4 complex (VTC complex) (Saccharomyces cerevisiae, UniProt P47075+Q02725, P47075:K300A/P47075:R302A/P47075:K320A); test: polyP synthesis, TBE-PAGE; type: biochemical; conditions: activator; 15 mM ATP, 10 mM MgCl2, 1 mM MnCl2, 0.5 mM pyrophosphate, 27 °C; TTM cleft (second site) mutant
T2 construct: full-length subunits co-expressed in Expi293F; Vtc1 C-terminal HA, Vtc3 N-terminal 3xFlag, Vtc4 C-terminal 2xStrep; detergent-purified; 3:1:1 pentamer; with Vacuolar transporter chaperone complex subunit 1
T2 sequence (P47075 1-721 K300A/R302A/K320A): T1 sequence (P47075 1-721 Y22F/K26A/K133A) with F22Y, A26K, A133K, K300A, R302A, K320A
T2 sequence (Q02725 1-835): T1 sequence (Q02725 1-835)
T2 sequence (P40046 2-129 partner): T1 sequence (P40046 2-129 partner)

O=P(O)(O)O[C@H]1[C@H](OP(=O)(O)O)[C@@H](OP(=O)(O)O)[C@H](OP(=O)(O)O)[C@@H](OP(=O)(O)O)[C@H]1OP(=O)(O)O [InsP6]
polyP synthesis, TBE-PAGE [1]: both reduced InsP6-stimulated polyP synthesis | polyP synthesis, TBE-PAGE [2]: had little impact on InsP6-stimulated polyP synthesis by VTC complex
